# Reference: US20240307409A1, “ARGININE METHYLTRANSFERASE INHIBITOR AND USE THEREOF” (Cytosinlab Therapeutics Co., Ltd., priority 2021, published 2024)
# Legend:
# PRMT1 = PRMT1 (Homo sapiens, UniProt Q99873); assay: PRMT1 enzyme activity test; assay type: biochemical; conditions: 0.5 nM PRMT1, 3H-SAM, peptide
# Procedure: PRMT1 enzyme activity test were performed in a buffer prepared on the same day 5 consisting of 10 mMTirs-HCl (pH=8.0), 0.01% Tween-20 and 1 mM DTT. The compounds were prepared to the highest inhibitor concentration ultimately required in the 100× reaction with 100% DMSO and then transferred to one well of a 384-well Echo plate (Echo-eligible 384-well polypropylene microplates 2.0, transparent, flat-bottomed) and sequentially diluted in the next well with a 3-fold dilution of 100% DMSO, and so on, with a total of 10 concentrations based on Precision. 100% DMSO was added to two empty wells to serve as control well without compound and control well without enzyme in the same 384-well Echo plate. 250 nL of compound was transferred from each well of the 384-well Echo plate to a 384-well assay plate (384-well polypropylene storage microplate) via the Echo 550 liquid processor. For wells with compounds and control well without compound, a mixture (15 uL) containing PRMT1 enzyme was added to the 384-well assay plate. For control wells without enzyme, the mixture containing the assay buffer (15 uL) was added instead. The compounds were allowed to incubate with PRMT1 for 15 minutes at room temperature, and then a mixture containing ^3H-SAM and peptide (10 uL) was added to start the reaction (final volume=25 uL). The final concentrations of the components were as follows: 0.5 nM for PRMT1, 0.25 uM for ^3H-SAM, 0.1 uM for the peptide, and 1% DMSO. After 120 min of incubation, the assay was terminated by the addition of non-radiolabeled SAM (5 uL) to a final concentration of 125 uM, which diluted 3H-SAM to a level at which its incorporation into the peptide substrate was no longer detected. 25 μL of the reaction solution from the 384-well assay plate was then transferred to a 384-well detection plate (Streptavidin FlashPlate HTS PLUS, high volume, 384 wells). The biotinylated peptide was allowed to bind to the surface of the antibiotic protein streptavidin for at least 60 minutes at room temperature. The Flashplate was then washed three times with 0.1% Tween-20 in a BioTek plate washer. Plates were read on a microplate counter (MicroBeta2) to measure the amount of ^3H-labeled peptide bound to the surface of the detection plate, measured in counts per minute (cpm).
# The raw data were copied from the Reader and the inhibition values were calculated in Excel by Equation (1), Equation (1): Inh %=(CPMmax−CPMcmpd)/(CPMmax−CPMmin)*100, wherein the Max signal was obtained from the enzyme-substrate interaction and the Min signal was obtained from the substrate. IC50 values were obtained by fitting the data through equation (2) using XLFit add-in for Excel version […]. Equation (2): Y=Bottom+(Top-Bottom)/(1+((IC50/X)[…])), wherein, Y represents inhibition percentage and X represents compound concentration.
# Toledo cells = assay: Toledo cell proliferation inhibition assay; assay type: cell-based; conditions: six-day assay, CellTiter-Glo
# Procedure: • A. Purpose: to determine the effects of compounds on Toledo cells through a six-day cell proliferation assay. • B. Reagents and materials: • 1. Cell culture medium: RPMI 1640+10% FBS • 2. 384-well cell culture plate (Corning, item #3764) • 3. 0.4% Taipan Blue Staining Solution (Thermo Fisher, item #T10282) • 4. cell counting plate (Thermo Fisher, item #C10228) • 5. 50 ml reagent reservoir (Corning, item #4870) • 6. 50 ml conical sterile polypropylene centrifuge tube (Thermo Fisher, item #339653) • 7. Automatic cell counter (Thermo Fisher, item #AMQAX1000) • 8. CellTiter-Glo Luminescent Cell Viability Detection Reagent (Promega, item #G7572) • 9. SpectraMax i3x Multi-Mode Enzyme Labeling Instrument (Megaman Molecular Instruments, item #5024062) • C. Experimental method • 1. Resuspending the cells with a pipette. • 2. 0.4% Taipan blue staining solution and Toledo cells were mixed in equal proportion, and the cells were counted using an automatic cell counter. • 3. Toledo cells were diluted to a final concentration of 2000 cells per well and transferred to a 50 ml reagent reservoir. • 4. Diluted Toledo cells were added to a 384-well cell culture plate, 40 ul per well. • 5. The cells were shortly centrifuged and settled. • 6. The cells were incubated in a 37° C., 5% CO2 cell culture incubator. • 7. The substrate in the CellTiter-Glo Luminescent Cell Viability Detection Reagent was mixed with the solution. • 8. After six days, the 384-well cell culture plate was taken from the incubator and 20 ul of configured CellTiter-Glo reagent was added to each well. • 9. 384-well cell culture platewasmixed in an orbital shaker for 30 minutes. • 10. Signal of luminescence was detected with a SpectraMax i3x multi-mode enzyme labeling instrument.
# PRMT1, sequence (Q99873 whole entry): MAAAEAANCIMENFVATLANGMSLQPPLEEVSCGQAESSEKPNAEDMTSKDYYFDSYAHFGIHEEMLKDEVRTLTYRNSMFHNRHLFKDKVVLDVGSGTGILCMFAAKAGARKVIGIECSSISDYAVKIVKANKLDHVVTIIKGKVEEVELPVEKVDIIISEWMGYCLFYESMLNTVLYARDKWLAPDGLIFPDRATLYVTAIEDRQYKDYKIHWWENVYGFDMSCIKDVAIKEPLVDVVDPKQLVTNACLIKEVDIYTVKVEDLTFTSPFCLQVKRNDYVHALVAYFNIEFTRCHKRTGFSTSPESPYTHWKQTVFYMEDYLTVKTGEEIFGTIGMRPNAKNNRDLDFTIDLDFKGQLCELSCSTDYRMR
SMILES,IC50 (PRMT1) [µM],"IC50 (Toledo cells; Homo sapiens, Toledo, 144 h) [µM]",IC50 (Toledo cells) [µM]
CNCCN(C)Cc1ccc(F)cc1[C@H]1CC[C@@H](Oc2cc(C(F)(F)F)cc(C(F)(F)F)c2)CC1 [P026],≥ 0.5,,
CNCCN(C)Cc1ccccc1C1=CCN(C(C)C)CC1 [P028],< 0.05,≥ 5,
CNCCN(C)Cc1ccc(F)cc1N1CCC(Oc2cc(C(F)(F)F)cc(C(F)(F)F)c2)CC1 [P032],≥ 0.5,,
CNCCN(C)Cc1ccccc1N1CCC(N(C)C)CC1 [P035],0.05 to 0.5,≥ 5,
CNCCN(C)Cc1ncccc1C#Cc1cccc(C)c1 [P091],≥ 0.5,,
CNCCN(C)Cc1ccc(=O)[nH]c1C1CCN(c2cccc(C)c2)CC1 [P211],0.05 to 0.5,,
CNCCN(C)Cc1cc(C(N)=O)ccc1C1CCN(c2cccc(C)c2)CC1 [P220],0.05 to 0.5,,
CNCCN(C)Cc1ccc2nncn2c1C1CCN(c2cccc(C)c2)CC1 [P232],0.05 to 0.5,,
CNCCN(C)Cc1ncccc1C1CCCOC1 (stereo not drawn) [P246],≥ 0.5,,
CNCCN(C)Cc1ncccc1C1CCCCO1 (stereo not drawn) [P247],0.05 to 0.5,,
CNCCN(C)Cc1ccc2[nH]nnc2c1C1CCN(c2cccc(C)c2)CC1 [P265],< 0.05,,
CNCCN(C)Cc1ncccc1N1CCC(OCCOC)CC1 [P274],< 0.05,,
CNCCN(C)Cc1ncccc1C1CCN(c2ccnnc2)CC1 [P289],< 0.05,,
CNCCN(C)Cc1ncccc1N1CCC(O)CC1 [P294],< 0.05,,
CNCCN(C)Cc1ncccc1N1CCc2ccc(S(C)(=O)=O)cc2CC1 [P295],< 0.05,,
CNCCN(C)Cc1ncccc1C1CCN(c2ccc(C(N)=O)cc2)CC1 [P299],< 0.05,,
CNCCN(C)Cc1ncccc1N1CCC(OCC(=O)NC)CC1 [P322],< 0.05,,
NCCCCc1ccccc1N1CCc2cc(F)c(F)cc2CC1 [P350],≥ 0.5,,

SMILES,IC50 (PRMT1) [µM],"IC50 (Toledo cells; Homo sapiens, Toledo, 144 h) [µM]",IC50 (Toledo cells) [µM]
CNCCN(C)C(C)c1ccccc1N1CCc2cc(F)c(F)cc2CC1 (stereo not drawn) [P351],0.05 to 0.5,,
CNCCN(C)Cc1ccc(OC)nc1C1CCN(c2cccc(C)c2)CC1 [P352],0.05 to 0.5,,
CNCCN(C)Cc1ccc(NC(=O)NC)nc1C1CCN(c2cccc(C)c2)CC1 [P353],< 0.05,,
CNCCN(C)Cc1ccc(Nc2ccc(F)cc2)nc1C1CCN(c2cccc(C)c2)CC1 [P354],0.05 to 0.5,,
CNCCN(C)Cc1ccc(Nc2ncc[nH]2)nc1C1CCN(c2cccc(C)c2)CC1 [P355],< 0.05,,
CNCCN(C)Cc1ccc(NS(C)(=O)=O)nc1C1CCN(c2cccc(C)c2)CC1 [P357],0.05 to 0.5,,
CNCCN(C)Cc1ccc(NC)nc1C1CCN(c2cccc(C)c2)CC1 [P358],< 0.05,,
CNCCN(C)Cc1nc(N)cnc1C1CCN(c2cccc(C)c2)CC1 [P359],0.05 to 0.5,,
CNCCN(C)Cc1ccc(N2CCOC2=O)nc1C1CCN(c2cccc(C)c2)CC1 [P360],0.05 to 0.5,,
CNCCN(C)Cc1ccc(CN2CCCC2)nc1C1CCN(c2cccc(C)c2)CC1 [P361],< 0.05,,
CNCCN(C)Cc1ccc(NCCNCC(=O)OC)nc1C1CCN(c2cccc(C)c2)CC1 [P362],0.05 to 0.5,,
CNCCN(C)Cc1ccc(NC(=O)N(C)C)nc1C1CCN(c2cccc(C)c2)CC1 [P363],0.05 to 0.5,,
CNCCN(C)Cc1ccc(NS(=O)(=O)N(C)C)nc1C1CCN(c2cccc(C)c2)CC1 [P365],0.05 to 0.5,,
CNCCN(C)Cc1ccc(Nc2nc3ccccc3[nH]2)nc1C1CCN(c2cccc(C)c2)CC1 [P366],< 0.05,,
CCOC(=O)c1cnc(Nc2ccc(CN(C)CCNC)c(C3CCN(c4cccc(C)c4)CC3)n2)[nH]1 [P367],< 0.05,,
Cc1cccc(N2CCC(c3nc(N)cnc3CN(C)CCN(C)C)CC2)c1 [P368],0.05 to 0.5,,
Cc1cccc(N2CCC(c3nc(N)cnc3CN(C)CCN)CC2)c1 [P369],< 0.05,,

# Continued, in another order:
IC50 (PRMT1) [µM],SMILES,"IC50 (Toledo cells; Homo sapiens, Toledo, 144 h) [µM]",IC50 (Toledo cells) [µM]
< 0.05,CNCCN(C)Cc1ccc(F)cc1C1CCc2ccc(C(F)(F)F)cc2CC1 (stereo not drawn) [P002],,
< 0.05,CNCCN(C)Cc1cc(F)ccc1[C@H]1CC[C@@H](c2cccc(C)c2)CC1 [P006],1 to 5,
< 0.05,CNCCN(C)Cc1cc(F)ccc1C1CCN(CCc2ccc(C(F)(F)F)cc2)CC1 [P010],1 to 5,
< 0.05,CNCCN(C)Cc1ccc(F)cc1C1CCc2ccccc2CC1 [P011],< 1,
< 0.05,CNCCN(C)Cc1ccc(F)cc1C1CCN(CCc2ccccc2)CC1 [P012],< 1,
< 0.05,CCc1cccc(N2CCC(c3cc(F)ccc3CN(C)CCNC)CC2)c1 [P013],1 to 5,
< 0.05,CCC1CC=C(c2ccccc2CN(C)CCNC)CC1 (stereo not drawn) [P016],< 1,
< 0.05,CNCCN(C)Cc1ccc(F)cc1C1CCCN(c2ccccc2)CC1 (stereo not drawn) [P017],1 to 5,
< 0.05,CNCCN(C)Cc1cc(F)ccc1C1CCN(c2cccc(C)c2)CC1 [P020],< 1,
< 0.05,CNCCN(C)Cc1ccccc1C1CCCCC1 [P024],< 1,
< 0.05,CNCCN(C)Cc1ccccc1C1CCN(C(C)C)CC1 [P027],1 to 5,
< 0.05,CNCCN(C)Cc1ccccc1N1CCc2ccccc2C1 [P029],,
< 0.05,CNCCN(C)Cc1ccc(F)cc1N1CCCN(c2ccccc2)CC1 [P030],≥ 5,
< 0.05,CCC1CCN(c2ccccc2CN(C)CCNC)CC1 [P031],1 to 5,
< 0.05,CNCCN(C)Cc1ccccc1N1CCCCC1 [P033],1 to 5,
< 0.05,CNCCN(C)Cc1nc(C)ccc1C1CCN(CCc2ccc(C(F)(F)F)cc2)CC1 [P034],< 1,

IC50 (PRMT1) [µM],SMILES,"IC50 (Toledo cells; Homo sapiens, Toledo, 144 h) [µM]",IC50 (Toledo cells) [µM]
< 0.05,CNCCN(C)Cc1nc(C)ccc1C1CCc2cc(F)c(F)cc2CC1 [P036],< 1,
< 0.05,CNCCN(C)Cc1ccc(C)nc1C1CCc2cc(F)c(F)cc2CC1 [P038],< 1,
< 0.05,CNCCN(C)Cc1ccccc1C1CCC2(CC1)CC(C)(C)CO2 (stereo not drawn) [P040],,< 1
< 0.05,CNCCN(C)Cc1ccccc1C1=CCC2(CC1)CC(C)(C)CO2 (stereo not drawn) [P042],< 1,
< 0.05,CNCCN(C)Cc1nc2ccccc2cc1C1CCN(c2cccc(C)c2)CC1 [P046],1 to 5,
< 0.05,CNCCN(C)Cc1ccc2ncccc2c1C1=CCN(c2cccc(C)c2)CC1 [P047],1 to 5,
< 0.05,CCOC[C@H]1CC[C@@H](c2ccccc2CN(C)CCNC)CC1 [P048],< 1,
< 0.05,CNCCN(C)Cc1ccccc1C1=CCC2(CCCCO2)CC1 (stereo not drawn) [P055],1 to 5,
< 0.05,CNCCN(C)Cc1ccc(C)nc1C1CCN(c2cc(C)c(F)cc2F)CC1 [P062],,
< 0.05,CNCCN(C)Cc1ncccc1C1CCN(C)CC1 [P152],,
< 0.05,CNCCN(C)Cc1ccc(-c2ncc[nH]2)cc1C1CCN(c2cccc(C)c2)CC1 [P154],,
< 0.05,CNCCN(C)Cc1ncccc1C1CCN(C(=O)C(C)C)CC1 [P235],,
< 0.05,CNCCN(C)Cc1ncccc1C1CCN(C(C)(C)O)CC1 [P244],,
< 0.05,CNCCN(C)Cc1ncccc1C1CCOCC1 [P245],,
< 0.05,CNCCN(C)Cc1ncccc1C1CCN(CCOCCOCCOCCOCCOCCN2CCC(c3cccnc3CN(C)CCNC)CC2)CC1 [P257],,
